Data taken from patent US8268840B2, “Pyrimidinyl pyridone inhibitors of kinases” (Roche Palo Alto LLC, priority 2008, dated 2012).

Row | SMILES | melting point [°C]
1 | CC(=O)N1CCC(Nc2ncc3c(N)cc(=O)n([C@@H]4CC[C@@H](O)C4)c3n2)CC1 (racemic) [Compound I-37, 2-(1-Acetyl-piperidin-4-ylamino)-5-amino-8-((1R,3R)-3-hydroxy-cyclopentyl)-8H-pyrido[2,3-d]pyrimidin-7-one] | 192 to 194
2 | Cc1c(N)c2cnc(N[C@@H]3CCCC[C@@H]3C)nc2n(C2CCC2)c1=O (racemic) [Compound I-58, 5-Amino-8-cyclobutyl-6-methyl-2-((1R,2S)-2-methyl-cyclohexylamino)-8H-pyrido[2,3-d]pyrimidin-7-one] | 160 to 161
3 | Cc1c(N)c2cnc(N[C@H]3CCCC[C@@H]3C)nc2n(C2CCC2)c1=O (racemic) [Compound I-60, 5-Amino-8-cyclobutyl-6-methyl-2-((1S,2S)-2-methyl-cyclohexylamino)-8H-pyrido[2,3-d]pyrimidin-7-one] | 209 to 210
4 | COC(=O)N[C@H]1CC[C@H](Nc2ncc3c(N)cc(=O)n(C4CCC4)c3n2)CC1 [Compound I-2, [4-(5-Amino-8-cyclobutyl-7-oxo-7,8-dihydro-pyrido[2,3-d]pyrimidin-2-ylamino)-cyclohexyl]-carbamic acid methyl ester] | 154.3 to 156
5 | Nc1c(F)c(=O)n(C2CCC2)c2nc(NC3CCCCC3)ncc12 [Compound I-4, 5-Amino-8-cyclobutyl-2-cyclohexylamino-6-fluoro-8H-pyrido[2,3-d]pyrimidin-7-one] | 286 to 287
6 | Nc1cc(=O)n(C2CCCCC2)c2nc(N[C@H]3CC[C@H](O)CC3)ncc12 [Compound I-6, 5-Amino-8-cyclohexyl-2-(4-hydroxy-cyclohexylamino)-8H-pyrido[2,3-d]pyrimidin-7-one] | 292 to 294
7 | Nc1cc(=O)n(CCCO)c2nc(NC3CCCCC3)ncc12 [Compound I-8, 5-Amino-2-cyclohexylamino-8-(3-hydroxy-propyl)-8H-pyrido[2,3-d]pyrimidin-7-one] | 131 to 132.5
8 | Cc1c(N)c2cnc(N[C@H]3CC[C@H](C(=O)N4CCOCC4)CC3)nc2n(C2CCCC2)c1=O [Compound I-10, 5-Amino-8-cyclopentyl-6-methyl-2-[4-(morpholine-4-carbonyl)-cyclohexylamino]-8H-pyrido[2,3-d]pyrimidin-7-one] | 186.8 to 188
9 | CC(=O)N[C@H]1CC[C@H](Nc2ncc3c(N)cc(=O)n(C4CCCC4)c3n2)CC1 [Compound I-11, N-[4-(5-Amino-8-cyclopentyl-7-oxo-7,8-dihydro-pyrido[2,3-d]pyrimidin-2-ylamino)-cyclohexyl]-acetamide] | 172.6 to 176.6
10 | Nc1cc(=O)n(CC2CC2)c2nc(NC3CCCCC3)ncc12 [Compound I-12, 5-Amino-2-cyclohexylamino-8-cyclopropylmethyl-8H-pyrido[2,3-d]pyrimidin-7-one] | 133 to 135
11 | Nc1cc(=O)n(C2CCCC2)c2nc(N[C@H]3CC[C@H](C(=O)N4CCOCC4)CC3)ncc12 [Compound I-13, 5-Amino-8-cyclopentyl-2-[4-(morpholine-4-carbonyl)-cyclohexylamino]-8H-pyrido[2,3-d]pyrimidin-7-one] | 292.5 to 295.3
12 | CS(=O)(=O)N[C@H]1CC[C@H](Nc2ncc3c(N)cc(=O)n(C4CCCCC4)c3n2)CC1 [Compound I-14, N-[4-(5-Amino-8-cyclohexyl-7-oxo-7,8-dihydro-pyrido[2,3-d]pyrimidin-2-ylamino)-cyclohexyl]-methanesulfonamide] | > 300
13 | Cc1c(N)c2cnc(N[C@H]3CC[C@H](C(=O)N4CCC(O)CC4)CC3)nc2n(C2CCC2)c1=O [Compound I-15, 5-Amino-8-cyclobutyl-2-[4-(4-hydroxy-piperidine-1-carbonyl)-cyclohexylamino]-6-methyl-8H-pyrido[2,3-d]pyrimidin-7-one] | 191.5 to 193
14 | Nc1c(-c2ccccc2Cl)c(=O)n(C2CCC2)c2nc(NC3CCCCC3)ncc12 [Compound I-16, 5-Amino-6-(2-chloro-phenyl)-8-cyclobutyl-2-cyclohexylamino-8H-pyrido[2,3-d]pyrimidin-7-one] | 175 to 176
15 | Nc1cc(=O)n(C2CCCC2)c2nc(NC3CCCCC3)ncc12 [Compound I-17, 5-Amino-2-cyclohexylamino-8-cyclopentyl-8H-pyrido[2,3-d]pyrimidin-7-one] | 125 to 130
16 | CC(=O)N[C@H]1CC[C@H](Nc2ncc3c(N)cc(=O)n([C@@H]4CC[C@@H](O)C4)c3n2)CC1 [Compound I-18, N-{4-[5-Amino-8-((1R,3R)-3-hydroxy-cyclopentyl)-7-oxo-7,8-dihydro-pyrido[2,3-d]pyrimidin-2-ylamino]-cyclohexyl}-acetamide] | 210 to 211.5
17 | COC(=O)N[C@H]1CC[C@H](Nc2ncc3c(N)cc(=O)n(C4CCCCC4)c3n2)CC1 [Compound I-19, [4-(5-Amino-8-cyclohexyl-7-oxo-7,8-dihydro-pyrido[2,3-d]pyrimidin-2-ylamino)-cyclohexyl]-carbamic acid methyl ester] | 193.9 to 198
18 | Cc1c(N)c2cnc(N[C@H]3CC[C@H](C(C)(C)O)CC3)nc2n(C2CCC2)c1=O [Compound I-20, 5-Amino-8-cyclobutyl-2-[4-(1-hydroxy-1-methyl-ethyl)-cyclohexylamino]-6-methyl-8H-pyrido[2,3-d]pyrimidin-7-one] | 223 to 224.8

Row | SMILES | melting point [°C]
19 | CCn1c(=O)cc(N)c2cnc(NC3CCCCC3)nc21 [Compound I-21, 5-Amino-2-cyclohexylamino-8-ethyl-8H-pyrido[2,3-d]pyrimidin-7-one] | 147.7 to 150.1
20 | Nc1cc(=O)n(C2CC2)c2nc(N[C@H]3CC[C@H](O)CC3)ncc12 [Compound I-22, 5-Amino-8-cyclopropyl-2-(4-hydroxy-cyclohexylamino)-8H-pyrido[2,3-d]pyrimidin-7-one] | 256.3 to 258.7
21 | CCc1c(N)c2cnc(N[C@H]3CC[C@H](NC(C)=O)CC3)nc2n(C2CCCC2)c1=O [Compound I-23, N-[4-(5-Amino-8-cyclopentyl-6-ethyl-7-oxo-7,8-dihydro-pyrido[2,3-d]pyrimidin-2-ylamino)-cyclohexyl]-acetamide] | > 300
22 | Cc1c(N)c2cnc(N[C@H]3CC[C@H](N(C)S(C)(=O)=O)CC3)nc2n(C2CCC2)c1=O [Compound I-24, N-[4-(5-Amino-8-cyclobutyl-6-methyl-7-oxo-7,8-dihydro-pyrido[2,3-d]pyrimidin-2-ylamino)-cyclohexyl]-N-methyl-methanesulfonamide] | 260 to 261
23 | CC(C)c1c(N)c2cnc(N[C@H]3CC[C@H](C(=O)N4CCC(O)CC4)CC3)nc2n(C2CCC2)c1=O [Compound I-25, 5-Amino-8-cyclobutyl-2-[4-(4-hydroxy-piperidine-1-carbonyl)-cyclohexylamino]-6-isopropyl-8H-pyrido[2,3-d]pyrimidin-7-one] | 170 to 171
24 | Nc1cc(=O)n(C2CC2)c2nc(NC3CCCCC3)ncc12 [Compound I-26, 5-Amino-2-cyclohexylamino-8-cyclopropyl-8H-pyrido[2,3-d]pyrimidin-7-one] | 117 to 118
25 | CS(=O)(=O)N1CCC(Nc2ncc3c(N)cc(=O)n(C4CCCCC4)c3n2)CC1 [Compound I-29, 5-Amino-8-cyclohexyl-2-(1-methanesulfonyl-piperidin-4-ylamino)-8H-pyrido[2,3-d]pyrimidin-7-one] | 250 to 254
26 | CC(=O)N1CCC(Nc2ncc3c(N)cc(=O)n(C4CCCC4)c3n2)CC1 [Compound I-30, 2-(1-Acetyl-piperidin-4-ylamino)-5-amino-8-cyclopentyl-8H-pyrido[2,3-d]pyrimidin-7-one] | 282 to 285
27 | Nc1c(-c2ccccc2)c(=O)n(C2CCC2)c2nc(NC3CCCCC3)ncc12 [Compound I-31, 5-Amino-8-cyclobutyl-2-cyclohexylamino-6-phenyl-8H-pyrido[2,3-d]pyrimidin-7-one] | 160 to 161
28 | Nc1cc(=O)n(C2CCCCC2)c2nc(NC3CCCCC3)ncc12 [Compound I-32, 5-Amino-8-cyclohexyl-2-cyclohexylamino-8H-pyrido[2,3-d]pyrimidin-7-one] | 243.1 to 244.9
29 | Nc1cc(=O)n(C2CCCC2)c2nc(NC3CCOCC3)ncc12 [Compound I-33, 5-Amino-8-cyclopentyl-2-(tetrahydro-pyran-4-ylamino)-8H-pyrido[2,3-d]pyrimidin-7-one] | 120 to 124
30 | Cc1c(N)c2cnc(N[C@@H]3CCCC[C@H]3C)nc2n(C2CCC2)c1=O [Compound I-34, 5-Amino-8-cyclobutyl-6-methyl-2-((1R,2R)-2-methyl-cyclohexylamino)-8H-pyrido[2,3-d]pyrimidin-7-one] | 209 to 210
31 | CCc1c(N)c2cnc(NC3CCCCC3)nc2n(C2CCCC2)c1=O [Compound I-36, 5-Amino-2-cyclohexylamino-8-cyclopentyl-6-ethyl-8H-pyrido[2,3-d]pyrimidin-7-one] | 229.8 to 230.5
32 | N#Cc1c(N)c2cnc(N[C@H]3CC[C@H](C(=O)N4CCC(O)CC4)CC3)nc2n(C2CCC2)c1=O [Compound I-38, 5-Amino-8-cyclobutyl-2-[4-(4-hydroxy-piperidine-1-carbonyl)-cyclohexylamino]-7-oxo-7,8-dihydro-pyrido[2,3-d]pyrimidine-6-carbonitrile] | > 300
33 | COC(=O)N[C@H]1CC[C@H](Nc2ncc3c(N)cc(=O)n(C4CC4)c3n2)CC1 [Compound I-39, [4-(5-Amino-8-cyclopropyl-7-oxo-7,8-dihydro-pyrido[2,3-d]pyrimidin-2-ylamino)-cyclohexyl]-carbamic acid methyl ester] | 257 to 259
34 | Cc1c(N)c2cnc(NC3CCN(S(C)(=O)=O)CC3)nc2n(C2CCC2)c1=O [Compound I-40, 5-Amino-8-cyclobutyl-2-(1-methanesulfonyl-piperidin-4-ylamino)-6-methyl-8H-pyrido[2,3-d]pyrimidin-7-one] | 265.3 to 267
35 | CC(=O)N[C@H]1CC[C@H](Nc2ncc3c(N)c(C)c(=O)n(C4CCCC4)c3n2)CC1 [Compound I-41, N-[4-(5-Amino-8-cyclopentyl-6-methyl-7-oxo-7,8-dihydro-pyrido[2,3-d]pyrimidin-2-ylamino)-cyclohexyl]-acetamide] | 296.2 to 298.2
